Measurements: patent US10253081B2, “Glucagon analogues” (Zealand Pharma A/S, priority 2012, dated 2019)
pEC50: −log10 of the molar value. Read-outs that look alike come from different tables or passages of the source. *1 amine or outer side, *2 acyl side, *3 side chain or, on linkers, in order; H or OH if unused. Where a SMILES comes first, the peptide text is derived from it. Side-chain parts run from the residue outwards. The star is where a group is joined. γGlu = O=C(O)[C@H](CCC(=O)[*:2])N[*:1]; Palmitoyl = CCCCCCCCCCCCCCCC(=O)*

Key:
[1] = biological target: T1, endogenous GLP-1 receptors (Mus musculus, UniProt O35659); assay: Agonistic activity on endogenous GLP-1 receptor (cAMP, murine insulinoma cell line); format: cell-based; conditions: intracellular cAMP, 15 minutes at 26° C.; read-out: EC50 GLP-1R (murine insulinoma cells)
T1 construct: Agonistic activity of the test compounds on endogenous GLP-1 receptors; endogenous in cells
T1 sequence (O35659 22-463): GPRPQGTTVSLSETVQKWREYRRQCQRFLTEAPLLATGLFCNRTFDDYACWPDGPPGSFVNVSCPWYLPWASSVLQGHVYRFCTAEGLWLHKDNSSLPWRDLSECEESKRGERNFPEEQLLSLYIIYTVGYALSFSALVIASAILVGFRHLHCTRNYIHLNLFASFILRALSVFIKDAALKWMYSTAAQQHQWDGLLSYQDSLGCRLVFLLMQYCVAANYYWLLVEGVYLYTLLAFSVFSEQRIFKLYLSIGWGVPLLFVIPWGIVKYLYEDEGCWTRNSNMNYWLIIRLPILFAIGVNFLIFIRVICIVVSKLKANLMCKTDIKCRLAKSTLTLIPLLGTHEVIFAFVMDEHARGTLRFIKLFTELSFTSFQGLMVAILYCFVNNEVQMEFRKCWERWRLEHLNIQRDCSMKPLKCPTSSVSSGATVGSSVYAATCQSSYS
Summary of the method: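 Murine insulinoma cells were exposed 15 min at 26° C in KRBH with 0.1% DMSO to compound or GLP-1 ([…]), then cAMP was measured by AlphaScreen against a standard curve, in quadruplicate. pEC50 came from curve fits; % CTL was normalised to the maximal GLP-1 cAMP response.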

[2] = Pharmacokinetic parameters after subcutaneous and intravenous administration to mice; format: in vivo; conditions: male, mouse, plasma, 20 nmol/kg, C57Bl/6J mice; for half-life: read-out: Terminal half life (converted); for MRT: read-out: Mean Residence Time
Summary of the method: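 Non-compartmental PK from LC-MS/MS plasma levels, sampled 0.5–24 h after subcutaneous and 10 min–24 h after intravenous dosing. Dose 20 nmol/kg (4 μM in pH 7.4 phosphate-buffered PBS) into male C57Bl/6J mice, 8–11 weeks old.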

| pEC50 [1] | clearance ([2]; IV) [mL/min/kg] | half-life ([2]; IV) [h] | Tmax ([2]; SC) [h] | bioavailability ([2]; SC) [%] | MRT ([2]; SC) [h] | half-life ([2]; SC) [h] | Structure (SMILES) |
| --- | --- | --- | --- | --- | --- | --- | --- |
| 9.08 | 0.22 | 5.5 | 4 | 75 | 12.8 | 8.6 | CCCCCCCCCCCCCCCC(=O)N[C@@H](CCC(=O)NCCCC[C@H](NC(=O)[C@H](CO)NC(=O)[C@H](CC(=O)O)NC(=O)[C@H](CC(C)C)NC(=O)[C@H](Cc1ccc(O)cc1)NC(=O)[C@H](CCCCN)NC(=O)[C@H](CO)NC(=O)[C@H](Cc1ccc(O)cc1)NC(=O)[C@H](CC(=O)O)NC(=O)[C@H](CO)NC(=O)[C@@H](NC(=O)[C@H](Cc1ccccc1)NC(=O)[C@@H](NC(=O)CNC(=O)[C@H](CCC(N)=O)NC(=O)[C@H](CO)NC(=O)[C@@H](N)Cc1c[nH]cn1)[C@@H](C)O)[C@@H](C)O)C(=O)N[C@@H](C)C(=O)N[C@@H](C)C(=O)N[C@@H](CCC(=O)O)C(=O)N[C@@H](CC(=O)O)C(=O)N[C@@H](Cc1ccccc1)C(=O)N[C@H](C(=O)N[C@@H](CCC(=O)O)C(=O)N[C@@H](Cc1c[nH]c2ccccc12)C(=O)N[C@@H](CC(C)C)C(=O)N[C@@H](CC(C)C)C(=O)N[C@@H](CCCNC(=N)N)C(=O)N[C@@H](C)C(N)=O)C(C)C)C(=O)O [Compound 7, H-HSQGTFTSDYSKYLDS-K(Hexadecanoyl-isoGlu)-AAEDFVEWLLRA-NH2] (H-HSQGTFTSDYSKYLDSK([γGlu-Palmitoyl])AAEDFVEWLLRA-NH2) |
| 8.94 | 0.157 | 3.7 | 4 | 47 | 10.6 | 4.3 | CCCCCCCCCCCCCCCC(=O)N[C@@H](CCC(=O)NCCCC[C@H](NC(=O)[C@H](CO)NC(=O)[C@H](CC(=O)O)NC(=O)[C@H](CC(C)C)NC(=O)[C@H](Cc1ccc(O)cc1)NC(=O)[C@H](CCCNC(=N)N)NC(=O)[C@H](CO)NC(=O)[C@H](Cc1ccc(O)cc1)NC(=O)[C@H](CC(=O)O)NC(=O)[C@H](CO)NC(=O)[C@@H](NC(=O)[C@H](Cc1ccccc1)NC(=O)[C@@H](NC(=O)CNC(=O)[C@H](CCC(N)=O)NC(=O)[C@H](CO)NC(=O)[C@@H](N)Cc1c[nH]cn1)[C@@H](C)O)[C@@H](C)O)C(=O)N[C@@H](C)C(=O)N[C@@H](C)C(=O)N[C@@H](CCC(=O)O)C(=O)N[C@@H](CC(=O)O)C(=O)N[C@@H](Cc1ccccc1)C(=O)N[C@H](C(=O)N[C@@H](CCC(=O)O)C(=O)N[C@@H](Cc1c[nH]c2ccccc12)C(=O)N[C@@H](CC(C)C)C(=O)N[C@@H](CC(C)C)C(=O)N[C@@H](CCCNC(=N)N)C(=O)N[C@@H](C)C(N)=O)C(C)C)C(=O)O [Compound 6, H-HSQGTFTSDYSRYLDS-K(Hexadecanoyl-isoGlu)-AAEDFVEWLLRA-NH2] (H-HSQGTFTSDYSRYLDSK([γGlu-Palmitoyl])AAEDFVEWLLRA-NH2) |
| 8.97 | 0.148 | 6.3 | 4 | 76 | 14.7 | 8.6 | CCCCCCCCCCCCCCCC(=O)N[C@@H](CCC(=O)NCCCC[C@H](NC(=O)[C@H](CO)NC(=O)[C@H](CC(=O)O)NC(=O)[C@H](CC(C)C)NC(=O)[C@H](Cc1ccc(O)cc1)NC(=O)[C@H](CCCCN)NC(=O)[C@H](CO)NC(=O)[C@H](Cc1ccc(O)cc1)NC(=O)[C@H](CC(=O)O)NC(=O)[C@H](CO)NC(=O)[C@@H](NC(=O)[C@H](Cc1ccccc1)NC(=O)[C@@H](NC(=O)CNC(=O)[C@H](CCC(N)=O)NC(=O)C(C)(C)NC(=O)[C@@H](N)Cc1c[nH]cn1)[C@@H](C)O)[C@@H](C)O)C(=O)N[C@@H](C)C(=O)N[C@@H](C)C(=O)N[C@@H](Cc1c[nH]cn1)C(=O)N[C@@H](CC(=O)O)C(=O)N[C@@H](Cc1ccccc1)C(=O)N[C@H](C(=O)N[C@@H](CCC(=O)O)C(=O)N[C@@H](Cc1c[nH]c2ccccc12)C(=O)N[C@@H](CC(C)C)C(=O)N[C@@H](CC(C)C)C(=O)N[C@@H](CO)C(=O)N[C@@H](C)C(=O)O)C(C)C)C(=O)O [Compound 13, H-H-Aib-QGTFTSDYSKYLDS-K(Hexadecanoyl-isoGlu)-AAHDFVEWLLSA-OH] |
| 8.79 | 0.225 | 4.1 | 6 | 43 | 8.3 | 4.3 | CCCCCCCCCCCCCCCC(=O)N[C@@H](CCC(=O)NCCCC[C@H](NC(=O)[C@H](CO)NC(=O)[C@H](CC(=O)O)NC(=O)[C@H](CC(C)C)NC(=O)[C@H](Cc1ccc(O)cc1)NC(=O)[C@H](CCCNC(=N)N)NC(=O)[C@H](CO)NC(=O)[C@H](Cc1ccc(O)cc1)NC(=O)[C@H](CC(=O)O)NC(=O)[C@H](CO)NC(=O)[C@@H](NC(=O)[C@H](Cc1ccccc1)NC(=O)[C@@H](NC(=O)CNC(=O)[C@H](CCC(N)=O)NC(=O)[C@H](CO)NC(=O)[C@@H](N)Cc1c[nH]cn1)[C@@H](C)O)[C@@H](C)O)C(=O)N[C@@H](C)C(=O)N[C@@H](C)C(=O)N[C@@H](Cc1c[nH]cn1)C(=O)N[C@@H](CC(=O)O)C(=O)N[C@@H](Cc1ccccc1)C(=O)N[C@H](C(=O)N[C@@H](CCC(=O)O)C(=O)N[C@@H](Cc1c[nH]c2ccccc12)C(=O)N[C@@H](CC(C)C)C(=O)N[C@@H](CC(C)C)C(=O)N[C@@H](CO)C(=O)N[C@@H](C)C(N)=O)C(C)C)C(=O)O [Compound 12, H-HSQGTFTSDYSRYLDS-K(Hexadecanoyl-isoGlu)-AAHDFVEWLLSA-NH2] (H-HSQGTFTSDYSRYLDSK([γGlu-Palmitoyl])AAHDFVEWLLSA-NH2) |
